Data reported in the supplement of paper PMC3974653.
Counter-ions that a name gives are not always drawn.

System: MTT (mouse pheochromocytoma)
Experiment: IC50 of cell viability (ATP content)
Conditions: (24 or 48 h)
Method in brief: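 Library compounds in DMSO (23 nl by pintool, 8 concentrations, final 0.5 nM to 46 µM) were applied for 24 or 48 hrs to MTT mouse pheochromocytoma cells that had been cultured overnight at 37°C, 5% CO2 in white 1536-well plates. Cell viability was measured by CellTiter-Glo ATP luminescence, read after 15 minutes, with positive-control wells set at 100% and DMSO wells at 0%. A four-parameter logistic fit of the normalised signals yielded the IC50.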

SMILES: CCCC[C@@H](CC)COC(=O)C[C@H](C(=O)OC[C@H](CC)CCCC)S(=O)(=O)[O-] [Dioctyl sulfosuccinate sodium salt]
- IC50 of cell viability: > 46 µM

SMILES: COc1ccc(C(=O)c2ccccc2O)c(O)c1 [Dioxybenzone]
- IC50 of cell viability: > 46 µM

SMILES: O=C(Nc1ccccc1)OC[C@H](CN1CCCCC1)OC(=O)Nc1ccccc1 [Diperodon hydrochloride]
- IC50 of cell viability: > 46 µM

SMILES: C[N+]1(C)CCC(=C(c2ccccc2)c2ccccc2)CC1 [Diphemanil methylsulfate]
- IC50 of cell viability: > 46 µM

SMILES: CN(C)CCOC(c1ccccc1)c1ccccc1 [Diphenhydramine]
- IC50 of cell viability: > 46 µM

SMILES: OC(CCCN1CCCCC1)(c1ccccc1)c1ccccc1 [Diphenidol]
- IC50 of cell viability: > 46 µM

SMILES: CCOC(=O)C1(c2ccccc2)CCN(CCC(C#N)(c2ccccc2)c2ccccc2)CC1 [Diphenoxylate]
- IC50 of cell viability: > 46 µM

SMILES: O=C(Oc1ccccc1)c1cccc(C(=O)Oc2ccccc2)c1 [Diphenyl isophthalate]
- IC50 of cell viability: > 46 µM

SMILES: CN1CCC(OC(c2ccccc2)c2ccccc2)CC1 [Diphenylpyraline hydrochloride]
- IC50 of cell viability: > 46 µM

SMILES: CNC[C@H](O)c1ccc(OC(=O)C(C)(C)C)c(OC(=O)C(C)(C)C)c1 [Dipivefrin hydrochloride]
- IC50 of cell viability: > 46 µM

SMILES: Cn1c(=O)c2c(ncn2C[C@@H](O)CO)n(C)c1=O [Diprophylline]
- IC50 of cell viability: > 46 µM

SMILES: [Na+].CN(C[S]([O-])(=O)=O)\C1=C(/C)N(C)N(C1=O)C2=CC=CC=C2 [Dipyrone]
- IC50 of cell viability: > 46 µM

SMILES: C[Si](C)(C)O[Si](C)(C)C [Disiloxane, hexamethyl-]
- IC50 of cell viability: > 46 µM

SMILES: CC(C)N(CC[C@@](C(N)=O)(c1ccccc1)c1ccccn1)C(C)C [Disopyramide]
- IC50 of cell viability: > 46 µM

SMILES: CCOC(=S)SSC(=S)OCC [Dixanthogen]
- IC50 of cell viability: > 46 µM

SMILES: CC(=O)O[C@@]12CO[C@@H]1C[C@H](O)[C@]3(C)[C@@H]2[C@H](OC(=O)C4=CC=CC=C4)[C@]5(O)C[C@H](OC(=O)C(O)[C@@H](NC(=O)OC(C)(C)C)C6=CC=CC=C6)C(=C(/[C@@H](O)C3=O)C5(C)C)/C (stereo partly specified) [Docetaxel]
- IC50 of cell viability: > 46 µM

SMILES: CCCCCCCCCC(CC)c1ccc(S(=O)(=O)[O-])cc1.[Na+] (stereo unspecified) [Dodecylbenzenesulfonic acid, sodium salt]
- IC50 of cell viability: > 46 µM

SMILES: CN(CCOc1ccc(NS(C)(=O)=O)cc1)CCc1ccc(NS(C)(=O)=O)cc1 [Dofetilide]
- IC50 of cell viability: > 46 µM

SMILES: Oc1ccc(CCNCCCCCCNCCc2ccccc2)cc1O [Dopexamine]
- IC50 of cell viability: > 46 µM

SMILES: CO[C@H]1C[C@@H](O[C@@H]2[C@@H](C)O[C@@H](O[C@@H]3/C(C)=C/CC4C[C@@H](C[C@]5(C=C[C@@H](C)[C@H](C6CCCCC6)O5)O4)OC(=O)[C@@H]4C=C(C)[C@@H](O)[C@H]5OC/C(=C\C=C\[C@@H]3C)[C@]54O)C[C@H]2OC)O[C@@H](C)[C@@H]1O [Doramectin]
- IC50 of cell viability: > 46 µM

SMILES: CCN[C@@H]1C[C@H](C)[S+](=O)([O-])c2sc([S+](N)(=O)[O-])cc21 [Dorzolamide hydrochloride]
- IC50 of cell viability: > 46 µM

SMILES: CN(C)CC/C=C1\c2ccccc2CSc2ccccc21 [Dosulepin hydrochloride]
- IC50 of cell viability: > 46 µM

SMILES: COc1cc2nc(N3CCN(C(=O)[C@H]4COc5ccccc5O4)CC3)nc(N)c2cc1OC.C[S+](=O)([O-])O [Doxazosin mesylate]
- IC50 of cell viability: > 46 µM

SMILES: CN(C)CC/C=C1\c2ccccc2COc2ccccc21 [Doxepin hydrochloride]
- IC50 of cell viability: > 46 µM

SMILES: C[C@H]1O[C@H]([C@H](O)[C@@H]1O)N2\C=C(F)/C(=O)NC2=O [Doxifluridine]
- IC50 of cell viability: > 46 µM

SMILES: Cn1c(=O)c2c(ncn2CC2OCCO2)n(C)c1=O [Doxofylline]
- IC50 of cell viability: > 46 µM

SMILES: C[C@H]1[C@H]\2[C@H](O)[C@H]3[C@H](N(C)C)\C(=C(\C(N)=O)C(=O)[C@]3(O)\C(=C2C(=O)C4=C1C=CC=C4O)O)O [Doxycycline hydrochloride]
- IC50 of cell viability: > 46 µM

SMILES: CN(C)CCO[C@](C)(c1ccccc1)c1ccccn1.O=C(O)CCC(=O)O [Doxylamine succinate]
- IC50 of cell viability: > 46 µM

SMILES: Cc1ccc(O)c(-n2nc3ccccc3n2)c1 [Drometrizole]
- IC50 of cell viability: > 46 µM

SMILES: CCCCc1oc2ccc(N[S+](C)(=O)[O-])cc2c1C(=O)c1ccc(OCCCN(CCCC)CCCC)cc1 [Dronedarone]
- IC50 of cell viability: > 46 µM

SMILES: FC1=CC=C(C=C1)C(=O)CCCN2CC\C(=C/C2)N3C(=O)NC4=C3C=CC=C4 [Droperidol]
- IC50 of cell viability: > 46 µM

SMILES: NC(C(=O)O)C(O)c1ccc(O)c(O)c1 (stereo unspecified) [Droxidopa]
- IC50 of cell viability: > 46 µM

SMILES: C[C@]12C=CC(=O)N[C@@H]1CC[C@@H]1C2CC[C@]2(C)C(C(=O)Nc3cc(C(F)(F)F)ccc3C(F)(F)F)CC[C@@H]12 (stereo partly specified) [Dutasteride]
- IC50 of cell viability: > 46 µM

SMILES: CCCCOc1ccc(C(=O)CCN2CCCCC2)cc1 [Dyclonine hydrochloride]
- IC50 of cell viability: > 46 µM

SMILES: CC(=O)[C@@H]1CC[C@@H]2[C@@H]3\C=C/C4=C/C(=O)CC[C@@]4(C)[C@H]3CC[C@@]12C [Dydrogesterone]
- IC50 of cell viability: > 46 µM

SMILES: CC(C)c1cc2c(cc1[S+](=O)([O-])O)[C@@]1(C)CCC[C@@](C)(C(=O)O)[C@@H]1CC2 [ECABET SODIUM]
- IC50 of cell viability: > 46 µM

SMILES: CN1CCc2cc(Cl)c(O)cc2[C@H]2c3ccccc3CC[C@@H]21 [ECOPIPAMUM]
- IC50 of cell viability: > 46 µM

SMILES: O=C(O)CN(CCN(CC(=O)O)CC(=O)O)CC(=O)O [EDETATE CALCIUM DISODIUM]
- IC50 of cell viability: > 46 µM

SMILES: CC(O)CN(CCN(CC(C)O)CC(C)O)CC(C)O (stereo unspecified) [EDETOLUM]
- IC50 of cell viability: > 46 µM

SMILES: CCC1(CC2=C(O1)C=CC=C2)\C3=N\CCN3 (stereo unspecified) [EFAROXAN]
- IC50 of cell viability: > 46 µM

SMILES: O=C1Nc2ccc(Cl)cc2C(C#CC2CC2)(C(F)(F)F)O1 (stereo unspecified) [EFAVIRENZ]
- IC50 of cell viability: > 46 µM

SMILES: CCc1cc([S+](=O)([O-])[O][Na])c2cc(C(C)C)cccc1-2 [EGUALEN SODIUM]
- IC50 of cell viability: > 46 µM

SMILES: CC/C=C\C/C=C\C/C=C\C/C=C\C/C=C\CCCC(=O)O [EICOSAPENTAENOIC ACID]
- IC50 of cell viability: > 46 µM

SMILES: CN1CCC[C@@H]1Cc1c[nH]c2ccc(CC[S+](=O)([O-])c3ccccc3)cc12 [ELETRIPTAN HYDROBROMIDE]
- IC50 of cell viability: > 46 µM

SMILES: O=c1oc2c(O)c(O)cc3c(=O)oc4c(O)c(O)cc1c4c23 [ELLAGIC ACID]
- IC50 of cell viability: > 46 µM

SMILES: c1cc2c(c(N3CCNCC3)c1)OCCO2 [ELTOPRAZINUM]
- IC50 of cell viability: > 46 µM

SMILES: CCOCCn1c(N2CCCN(C)CC2)nc2ccccc21 [EMEDASTINE DIFUMARATE]
- IC50 of cell viability: > 46 µM

SMILES: CCOC(=O)c1ccc(OCCN2C[C@H](O)[C@@H](O)[C@H](O)[C@H]2CO)cc1 [EMIGLITATE]
- IC50 of cell viability: > 46 µM

SMILES: Nc1nc(=O)n([C@@H]2CS[C@H](CO)O2)cc1F [EMTRICITABINE]
- IC50 of cell viability: > 46 µM

SMILES: Cl\C1=C(/Cl)C2(Cl)C3C4CC(C5OC45)C3C1(Cl)C2(Cl)Cl (stereo unspecified) [ENDRIN]
- IC50 of cell viability: > 46 µM

SMILES: FC(F)OC(F)(F)C(F)Cl (stereo unspecified) [ENFLURANE]
- IC50 of cell viability: > 46 µM
